Type in all cases: functional, cell-based
Holding throughout (conditions): dog, mdck-ii

For data set [1], the target named is T1, Multidrug resistance-associated protein 1 (Homo sapiens, UniProt P33527). The data set can be described thus: TP_TRANSPORTER: inhibition of Glutathione efflux (Benzbromarone: 25 uM) in MRP1-expressing MDCKII cells.
Data set [2] concerns the target T1, Multidrug resistance-associated protein 1. Nature of the data set: TP_TRANSPORTER: inhibition of Glutathione efflux (Indomethacin: 400 uM) in MRP1-expressing MDCKII cells.
Data set [3] has the same target. The data set can be described thus: TP_TRANSPORTER: inhibition of Glutathione efflux (Sulfinpyrazone: 3200. uM) in MRP1-expressing MDCKII cells.
Data set [4] addresses ATP-binding cassette sub-family C member 2 (Homo sapiens, UniProt Q92887). The data set can be described thus: TP_TRANSPORTER: transepithelial transport (basal to apical) in MRP2-expressing MDCKII cells.

Molecules are shown by their SMILES.

T1 sequence (P33527 whole entry): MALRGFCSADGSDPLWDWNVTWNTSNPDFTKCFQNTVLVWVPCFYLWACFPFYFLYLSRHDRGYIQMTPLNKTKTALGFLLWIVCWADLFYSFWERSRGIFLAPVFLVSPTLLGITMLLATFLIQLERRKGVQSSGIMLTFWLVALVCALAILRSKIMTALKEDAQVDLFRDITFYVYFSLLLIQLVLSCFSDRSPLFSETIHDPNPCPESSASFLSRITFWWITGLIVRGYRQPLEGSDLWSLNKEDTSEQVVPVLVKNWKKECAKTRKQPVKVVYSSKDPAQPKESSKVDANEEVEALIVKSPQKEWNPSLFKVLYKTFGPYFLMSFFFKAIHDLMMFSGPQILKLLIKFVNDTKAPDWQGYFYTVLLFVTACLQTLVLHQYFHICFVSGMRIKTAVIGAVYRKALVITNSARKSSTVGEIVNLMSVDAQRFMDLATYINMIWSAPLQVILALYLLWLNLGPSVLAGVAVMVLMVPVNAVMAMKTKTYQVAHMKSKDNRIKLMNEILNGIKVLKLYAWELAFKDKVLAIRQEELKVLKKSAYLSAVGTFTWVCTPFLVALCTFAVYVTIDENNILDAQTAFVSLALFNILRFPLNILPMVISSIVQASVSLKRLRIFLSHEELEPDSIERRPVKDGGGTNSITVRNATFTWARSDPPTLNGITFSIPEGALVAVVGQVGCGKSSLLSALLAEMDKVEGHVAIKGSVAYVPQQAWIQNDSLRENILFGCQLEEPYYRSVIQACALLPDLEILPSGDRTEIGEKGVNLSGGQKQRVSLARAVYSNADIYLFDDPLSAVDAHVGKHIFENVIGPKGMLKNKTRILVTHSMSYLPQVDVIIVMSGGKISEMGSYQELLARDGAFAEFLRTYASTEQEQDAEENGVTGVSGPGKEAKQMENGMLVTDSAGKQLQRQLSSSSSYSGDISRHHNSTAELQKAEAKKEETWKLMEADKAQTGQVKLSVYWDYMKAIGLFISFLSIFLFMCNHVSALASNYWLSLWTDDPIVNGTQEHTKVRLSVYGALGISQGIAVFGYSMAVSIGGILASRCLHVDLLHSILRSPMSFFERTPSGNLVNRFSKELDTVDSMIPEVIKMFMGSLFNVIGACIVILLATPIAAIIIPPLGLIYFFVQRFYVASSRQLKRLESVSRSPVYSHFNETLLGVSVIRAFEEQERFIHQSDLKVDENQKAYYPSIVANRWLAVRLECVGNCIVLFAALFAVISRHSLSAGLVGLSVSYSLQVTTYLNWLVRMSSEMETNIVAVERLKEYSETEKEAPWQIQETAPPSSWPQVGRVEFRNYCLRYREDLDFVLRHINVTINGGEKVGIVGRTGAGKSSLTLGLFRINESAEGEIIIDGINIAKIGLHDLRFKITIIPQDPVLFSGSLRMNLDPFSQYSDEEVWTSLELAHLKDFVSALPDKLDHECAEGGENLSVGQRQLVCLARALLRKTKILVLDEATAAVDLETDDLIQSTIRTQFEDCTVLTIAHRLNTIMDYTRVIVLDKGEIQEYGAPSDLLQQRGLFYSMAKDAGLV
Sequence of ATP-binding cassette sub-family C member 2 (Q92887 whole entry): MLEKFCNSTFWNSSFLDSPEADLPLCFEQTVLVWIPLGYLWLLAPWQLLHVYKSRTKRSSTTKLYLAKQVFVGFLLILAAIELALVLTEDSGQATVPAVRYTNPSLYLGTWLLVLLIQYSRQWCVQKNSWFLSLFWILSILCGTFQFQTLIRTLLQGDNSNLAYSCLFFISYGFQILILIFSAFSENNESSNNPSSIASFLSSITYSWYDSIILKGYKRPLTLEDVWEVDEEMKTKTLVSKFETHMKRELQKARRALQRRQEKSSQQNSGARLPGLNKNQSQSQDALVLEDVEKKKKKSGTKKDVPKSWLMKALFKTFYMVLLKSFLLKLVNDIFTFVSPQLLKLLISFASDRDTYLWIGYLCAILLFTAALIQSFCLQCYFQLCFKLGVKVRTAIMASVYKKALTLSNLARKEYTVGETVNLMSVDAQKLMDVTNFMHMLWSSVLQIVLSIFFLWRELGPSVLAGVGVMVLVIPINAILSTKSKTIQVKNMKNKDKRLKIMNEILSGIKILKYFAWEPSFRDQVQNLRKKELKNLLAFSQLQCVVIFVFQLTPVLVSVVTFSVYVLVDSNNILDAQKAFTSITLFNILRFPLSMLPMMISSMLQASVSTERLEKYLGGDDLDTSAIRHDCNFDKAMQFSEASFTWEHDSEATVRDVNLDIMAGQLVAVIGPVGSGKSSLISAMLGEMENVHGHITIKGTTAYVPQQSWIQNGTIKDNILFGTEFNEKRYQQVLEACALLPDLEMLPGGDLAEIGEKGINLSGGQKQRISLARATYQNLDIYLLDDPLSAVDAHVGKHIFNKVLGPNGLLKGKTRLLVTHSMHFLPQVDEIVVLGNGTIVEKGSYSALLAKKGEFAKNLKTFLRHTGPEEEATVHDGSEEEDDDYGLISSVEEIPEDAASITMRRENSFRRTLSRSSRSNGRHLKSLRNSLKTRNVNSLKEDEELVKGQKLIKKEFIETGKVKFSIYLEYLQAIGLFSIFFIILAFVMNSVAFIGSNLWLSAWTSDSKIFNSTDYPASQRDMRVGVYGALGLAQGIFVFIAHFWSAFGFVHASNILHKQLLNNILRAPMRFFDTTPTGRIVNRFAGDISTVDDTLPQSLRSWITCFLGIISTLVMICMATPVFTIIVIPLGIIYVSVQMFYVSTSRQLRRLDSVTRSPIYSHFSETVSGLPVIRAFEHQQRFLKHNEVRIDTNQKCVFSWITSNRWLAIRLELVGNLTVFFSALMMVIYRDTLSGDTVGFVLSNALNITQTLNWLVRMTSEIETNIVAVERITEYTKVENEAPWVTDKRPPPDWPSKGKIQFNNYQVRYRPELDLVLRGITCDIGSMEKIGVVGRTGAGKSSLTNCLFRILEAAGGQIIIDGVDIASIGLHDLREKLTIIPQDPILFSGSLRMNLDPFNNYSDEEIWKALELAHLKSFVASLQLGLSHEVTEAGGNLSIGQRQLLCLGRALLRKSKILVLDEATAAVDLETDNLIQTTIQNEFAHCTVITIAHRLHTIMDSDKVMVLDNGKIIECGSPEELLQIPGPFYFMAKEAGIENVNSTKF

As to `CCc1oc2ccccc2c1C(=O)c1cc(Br)c(O)c(Br)c1` [BENZBROMARONE], the Activity entry in data set [1] was “inhibitor [+]”.
With `COc1ccc2c(c1)c(CC(=O)O)c(C)n2C(=O)c1ccc(Cl)cc1` [INDOMETHACIN], the Activity entry in data set [2] is “inhibitor [+]”.
With `O=C1C(CC[S+]([O-])c2ccccc2)C(=O)N(c2ccccc2)N1c1ccccc1` (centres undefined) [SULFINPYRAZONE], the Activity result in data set [3] was “inhibitor [+]”; in data set [4] it was “substrate [+]”.
